pIC50: −log10 of the molar value.
What was measured:
[1] = target: T1, 15-hydroxyprostaglandin dehydrogenase [NAD(+)] (Homo sapiens, UniProt P15428); assay: Inhibition of human HPGD using PGE2 as substrate after 15 mins by fluorescence assay
T1 sequence (P15428 whole entry): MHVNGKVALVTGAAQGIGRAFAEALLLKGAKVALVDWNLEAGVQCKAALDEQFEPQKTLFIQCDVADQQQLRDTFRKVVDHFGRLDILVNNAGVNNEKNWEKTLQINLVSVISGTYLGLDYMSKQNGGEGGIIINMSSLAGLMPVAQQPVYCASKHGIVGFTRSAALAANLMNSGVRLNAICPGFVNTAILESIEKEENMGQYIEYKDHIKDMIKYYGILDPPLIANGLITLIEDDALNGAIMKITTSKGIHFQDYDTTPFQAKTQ

LNCaP [2] = assay: Induction of PGE2 production in human LNCAP cells at 41.9 nM to 100 uM after 16 hrs by HTRF assay relative to control; format: functional
A549 [3] = assay: Induction of PGE2 production in human A549 cells at 775 pM to 45.8 uM after 4 to 20 hrs by HTRF assay relative to control; format: functional
[4] = Kinetic solubility of the compound in PBS buffer at pH 7.4; format: physicochemical
[5] = Passive permeability of the compound at pH 7.4 by PAMPA; format: ADME
LNCaP [6] = assay: Induction of PGE2 production in human LNCAP cells assessed as half-maximal activation concentration after 16 hrs by HTRF assay; format: functional, cell-based
A549 [7] = assay: Induction of PGE2 production in human A549 cells assessed as concentration required for half-maximal activation after 4 to 20 hrs by HTRF assay; format: functional, cell-based
Liver microsome = assay: Half life in rat liver microsomes in presence of NADPH; format: ADME
[8] = target: T2, Aldehyde dehydrogenase 1A1 (Homo sapiens, UniProt P00352); assay: Inhibition of ALDH1A1 (unknown origin) using NAD+/propionaldehyde as substrate after 15 mins by UV-fluorescence assay
T2 sequence (P00352 whole entry): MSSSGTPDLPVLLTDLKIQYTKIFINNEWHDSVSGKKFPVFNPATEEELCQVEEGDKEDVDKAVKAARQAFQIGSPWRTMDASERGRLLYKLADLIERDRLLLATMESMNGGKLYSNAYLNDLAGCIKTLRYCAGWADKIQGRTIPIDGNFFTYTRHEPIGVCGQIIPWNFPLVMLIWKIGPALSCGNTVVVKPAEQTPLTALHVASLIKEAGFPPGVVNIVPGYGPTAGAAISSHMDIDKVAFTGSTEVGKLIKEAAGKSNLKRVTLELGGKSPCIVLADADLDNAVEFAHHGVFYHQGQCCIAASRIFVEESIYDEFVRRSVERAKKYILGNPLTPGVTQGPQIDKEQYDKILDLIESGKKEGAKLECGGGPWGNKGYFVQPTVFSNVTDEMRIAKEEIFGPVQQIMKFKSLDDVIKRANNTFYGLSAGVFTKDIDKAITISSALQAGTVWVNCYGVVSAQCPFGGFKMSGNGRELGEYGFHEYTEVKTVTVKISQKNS

[9] = target: T3, Peroxisomal multifunctional enzyme type 2 (Homo sapiens, UniProt P51659); assay: Inhibition of HSD17beta4 (unknown origin) using NAD+/estradiol as substrate at 324 pM to 57.2 uM after 15 mins by UV-fluorescence assay
T3 sequence (P51659 whole entry): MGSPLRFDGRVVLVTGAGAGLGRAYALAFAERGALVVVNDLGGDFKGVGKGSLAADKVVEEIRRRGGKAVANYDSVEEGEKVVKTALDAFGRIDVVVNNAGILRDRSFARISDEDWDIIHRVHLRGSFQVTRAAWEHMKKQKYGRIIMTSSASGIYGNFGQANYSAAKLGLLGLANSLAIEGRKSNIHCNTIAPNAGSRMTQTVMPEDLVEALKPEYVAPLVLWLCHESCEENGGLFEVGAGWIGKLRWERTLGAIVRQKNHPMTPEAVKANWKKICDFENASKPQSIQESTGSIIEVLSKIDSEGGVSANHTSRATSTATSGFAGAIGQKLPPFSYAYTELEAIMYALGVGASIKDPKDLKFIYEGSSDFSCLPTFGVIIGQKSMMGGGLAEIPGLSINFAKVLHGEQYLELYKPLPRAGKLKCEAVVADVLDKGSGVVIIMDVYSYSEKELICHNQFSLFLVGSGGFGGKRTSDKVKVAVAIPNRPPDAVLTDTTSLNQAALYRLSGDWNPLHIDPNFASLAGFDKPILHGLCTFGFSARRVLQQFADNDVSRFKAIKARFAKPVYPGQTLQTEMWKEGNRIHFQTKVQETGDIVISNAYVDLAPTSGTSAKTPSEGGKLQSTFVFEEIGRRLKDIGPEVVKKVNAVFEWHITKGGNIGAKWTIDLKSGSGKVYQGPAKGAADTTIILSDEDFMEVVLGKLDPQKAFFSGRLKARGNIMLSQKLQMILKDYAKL

[10] = target: L-lactate dehydrogenase B chain (Homo sapiens, UniProt P07195); assay: Inhibition of LDHB (unknown origin) using sodium pyruvate as substrate at 0.46 to 57.5 uM after 15 mins by fluorescence assay
Chain of L-lactate dehydrogenase B chain (P07195 whole entry): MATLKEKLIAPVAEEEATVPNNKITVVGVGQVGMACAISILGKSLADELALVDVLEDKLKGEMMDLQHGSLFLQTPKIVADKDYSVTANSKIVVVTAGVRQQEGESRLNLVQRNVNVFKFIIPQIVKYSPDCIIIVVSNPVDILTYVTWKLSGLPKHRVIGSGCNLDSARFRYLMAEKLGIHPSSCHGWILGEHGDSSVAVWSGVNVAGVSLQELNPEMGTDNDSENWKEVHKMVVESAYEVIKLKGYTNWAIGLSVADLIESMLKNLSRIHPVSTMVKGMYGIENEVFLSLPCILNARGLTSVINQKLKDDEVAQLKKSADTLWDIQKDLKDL

[11] = target: L-lactate dehydrogenase A chain (Homo sapiens, UniProt P00338); assay: Inhibition of LDHA (unknown origin) using sodium pyruvate as substrate at 0.46 to 57.5 uM after 15 mins by fluorescence assay
[12] = target: Glyceraldehyde-3-phosphate dehydrogenase (Oryctolagus cuniculus, UniProt P46406); assay: Inhibition of rabbit muscle GAPDH using glyceraldehyde-3-phosphate as substrate at 324 pM to 57.2 uM by fluorescence assay
Chain of Glyceraldehyde-3-phosphate dehydrogenase (P46406 whole entry): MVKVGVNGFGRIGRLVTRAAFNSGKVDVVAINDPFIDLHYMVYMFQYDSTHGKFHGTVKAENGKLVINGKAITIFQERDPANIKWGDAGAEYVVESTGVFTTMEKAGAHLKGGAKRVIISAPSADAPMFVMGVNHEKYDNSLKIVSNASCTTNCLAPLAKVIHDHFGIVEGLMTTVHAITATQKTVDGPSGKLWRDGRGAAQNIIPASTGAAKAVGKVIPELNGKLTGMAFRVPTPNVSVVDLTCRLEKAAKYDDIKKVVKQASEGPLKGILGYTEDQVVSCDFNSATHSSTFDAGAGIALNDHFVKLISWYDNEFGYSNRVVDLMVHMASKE

Compound | pIC50 [1] | other results
Cc1cccc(-n2cnc3cc(C(=O)NC4CCCC4)ccc32)c1 | 6.02 | –
Cc1cccc(-n2cnc3cc(C(=O)N4CCN(C)CC4)ccc32)c1 | 5.57 | –
Cc1cccc(-n2cnc3cc(C(=O)N4CCCC(c5ccccc5)C4)ccc32)c1 (configuration not stated) | 6.37 | –
Cc1cc(-c2nnc3n2CCCCC3)c(C)n1-c1ccc(C(C)(C)C)cc1 | 6.87 | –
c1ccc(-n2ccc(-c3nnc4n3CCCCC4)c2)cc1 | 6.22 | –
Cc1cccc(-n2cnc3cc(C(=O)N4CCCCC4)ccc32)c1 | 7.72 | Activity (LNCaP [2]): 62%; AC50 (LNCaP [6]): 884 nM; Activity (A549 [3]): 129%; AC50 (A549 [7]): 469 nM; Kinetic_solubility [4]: > 47 µM; t1/2 (Liver microsome): 7.3 min; permeability [5]: 1200 ×10⁻⁶ cm/s
Cc1cc(-c2nnc3n2CCCCCCC3)c(C)n1-c1ccccc1 | 6.42 | –
Cc1cc(-c2nnc3n2CCC3)c(C)n1-c1ccccc1 | 5.52 | –
Cc1cc(-c2nnc3n2CCCCCC3)c(C)n1-c1ccccc1 | 6.62 | –
CCCCNC(=O)c1ccc2c(c1)ncn2-c1cccc(C)c1 | 5.87 | –
Cc1cccc(-n2cnc3cc(C(=O)N4CC(C)CC(C)C4)ccc32)c1 (configuration not stated) | 6.57 | –
Cc1cc(-c2nnc3n2CCCCC3)c(C)n1-c1cccnc1 | 6.57 | –
Cc1cc(-c2nnc3n2CCCCC3)c(C)n1-c1ccccn1 | 5.97 | –
Cc1cc(-c2nnc3n2CCCCC3)c(C)n1-c1ccc(C#N)cc1 | 7.02 | –
Cc1cc(-c2nnc3n2CCCC3)c(C)n1-c1ccccc1 | 6.72 | –

Further molecules by rising pIC50 [1], results first:

pIC50 [1] | Compound | other results
7.07 | COc1ccc(-n2c(C)cc(-c3nnc4n3CCCCC4)c2C)cc1 | –
7.17 | CCCCn1cnc2cc(C(=O)N3CCCCC3)ccc21 | –
7.17 | Cc1cccc(-n2cnc3cc(C(=O)N4CCCC(C(F)(F)F)C4)ccc32)c1 (configuration not stated) | –
7.27 | Cc1cc(-c2nnc3n2CCCCC3)c(C)n1-c1ccccc1 | Activity (LNCaP [2]): 73%; Activity (A549 [3]): 106%; Kinetic_solubility [4]: > 45 µM; permeability [5]: 599 ×10⁻⁶ cm/s
7.32 | Cc1cc(-c2nnc3n2CCCCC3)c(C)n1-c1ccc(Br)cc1 | –
7.32 | Cc1cccc(-n2cnc3cc(C(=O)N4CCCC(C(C)C)C4)ccc32)c1 (configuration not stated) | –
7.42 | CCOC(=O)c1ccc(-n2c(C)cc(-c3nnc4n3CCCCC4)c2C)cc1 | –
7.72 | Cc1ccc(-n2cnc3cc(C(=O)N4CCCCC4)ccc32)cc1 | –
7.72 | COc1cccc(-n2cnc3cc(C(=O)N4CCCCC4)ccc32)c1 | –
7.92 | O=C(c1ccc2c(c1)ncn2-c1cccc(Cl)c1)N1CCCCC1 | Activity (LNCaP [2]): 85%; AC50 (LNCaP [6]): 222 nM; Activity (A549 [3]): 170%; pIC50 [8]: 5.72; IC50 [9]: Not Active; IC50 [10]: Not Active; IC50 [11]: Not Active; IC50 [12]: Not Active; Kinetic_solubility [4]: > 50 µM; t1/2 (Liver microsome): 6.4 min; permeability [5]: 895 ×10⁻⁶ cm/s

From ChEMBL document CHEMBL3102731, “Structure-activity relationship studies and biological characterization of human NAD(+)-dependent 15-hydroxyprostaglandin dehydrogenase inhibitors” (Bioorg Med Chem Lett, 2014)
